Assay results: patent US20240246902A1, “PRODRUGS OF 6-DIAZO-5-OXO-L-NORLEUCINE” (THE JOHNS HOPKINS UNIVERSITY, priority 2021, published 2024)
Converted amounts (≈) assume the structure as drawn.

Assays:
[1] = Metabolic stability in swine liver tissue homogenate; type: in vitro ADME; settings: prodrug 20 μM, 37° C.
Method: (§1) The representative Compounds of the Disclosure were screened for metabolic stability in swine jejunum/liver tissue homogenates, following our previously reported methods (Zimmermann et al., J. Med. Chem., 61(9):3918-29 (2018); Tenora et al., J. Med. Chem., 62(7):3524-38 (2019)). In brief, freshly collected tissues were homogenized by probe sonication in 9× volume of 0.1 M potassium phosphate buffer over ice. Post homogenization, prodrugs were spiked at a concentration of 20 μM (in triplicate) and incubated in an orbital shaker at 37° C. for 60 min. Final concentration of DMSO in the incubations was 0.2% v/v. At each time point (0, 30, 60 min), 100 μL of sample was precipitated with 300 μL of methanol containing internal standard (IS; losartan: 0.5 μM). […] After centrifugation, 50 μL of supernatant was diluted with 50 μL of water, vortexed and submitted for analysis. Prodrug disappearance over time was measured using liquid chromatography tandem mass spectrometry (LC-MS/MS).
(§2) The processed supernatants were analyzed on a Thermo Scientific Vanquish UPLC system (equipped with Vanquish autosampler, pumps, and column compartment) hyphenated to TSQ Altis mass spectrometer (Thermo Fisher Scientific Inc., Waltham MA). […] The autosampler was operated at 4° C. […] Peak area ratios obtained from peak area counts of analyte and internal standard were used to measure the disappearance of prodrugs.

[2] = Metabolic stability in swine jejunum (gut) tissue homogenate; type: in vitro ADME; settings: prodrug 20 μM, 37° C.
Method: as §1, §2

[3] = Plasma stability, mouse plasma; settings: MP = Mouse Plasma

| Structure (SMILES) | Liver stability (% remaining at 60 min) [1] [%] | solubility (Solubility) [µg/mL] | Efflux (Efflux) | Gut Stability (% remaining at 60 min) [2] [%] | Plasma Stability (% remaining at 60 min) [3] |
| --- | --- | --- | --- | --- | --- |
| CCCC(=O)N[C@@H](CCC(=O)C=[N+]=[N-])C(=O)OC(C)C [Compound 5b, Isopropyl (S)-2-butyramido-6-diazo-5-oxohexanoate] | 12 ± 1 | ~5000 (≈ 17.6 mM) |  |  |  |
| CCCCCC(=O)N[C@@H](CCC(=O)C=[N+]=[N-])C(=O)OC(C)C [Compound 5c, Isopropyl (S)-6-diazo-2-hexanamido-5-oxohexanoate] | 0 ± 0 | ~2000 (≈ 6.42 mM) |  |  |  |
| CC(C)OC(=O)[C@H](CCC(=O)C=[N+]=[N-])NC(=O)CN(C)C [Compound 5d, Isopropyl (S)-6-diazo-2-(2-(dimethylamino)acetamido)-5-oxohexanoate] | 76 ± 0 |  | 2 | 98 ± 2 |  |
| CC(C)OC(=O)[C@H](CCC(=O)C=[N+]=[N-])NC(=O)c1cccnc1 [Compound 5f, Isopropyl (S)-6-diazo-2-(nicotinamido)-5-oxohexanoate] | 0 ± 0 | ~5000 (≈ 15.7 mM) |  |  |  |
| CC(=O)N[C@@H](CCC(=O)C=[N+]=[N-])C(=O)OC(C)(C)C [Compound 5g, tert-Butyl (S)-2-acetamido-6-diazo-5-oxohexanoate] | 2 ± 0 |  | 1 | 93 ± 1 |  |
| CC(C)(C)OC(=O)[C@H](CCC(=O)C=[N+]=[N-])NC(=O)C(Cl)Cl [Compound 5i, tert-Butyl (S)-6-diazo-2-(2,2-dichloroacetamido)-5-oxohexanoate] | 97 ± 0 |  | 1 | 110 ± 2 |  |
| CCOC(=O)[C@H](CCC(=O)C=[N+]=[N-])NC(C)=O [Compound 5k, Ethyl (S)-2-acetamido-6-diazo-5-oxohexanoate] | 83 ± 2 |  | 1 |  |  |
| COCCOCCOC(=O)[C@H](CCC(=O)C=[N+]=[N-])NC(C)=O [Compound 5m, 2-(2-Methoxyethoxy)ethyl (S)-2-acetamido-6-diazo-5-oxohexanoate] | 57 ± 0 |  | 5 | 87 ± 2 |  |
| CC(=O)N[C@@H](Cc1c[nH]c2ccccc12)C(=O)N[C@@H](CCC(=O)C=[N+]=[N-])C(=O)OC(C)(C)C [Compound 11a, tert-Butyl (S)-2-((S)-2-acetamido-3-(1H-indol-3-yl)propanamido)-6-diazo-5-oxohexanoate] | 95 ± 3 |  | 41 | 88 ± 4 | 62 ± 1 (MP) % |
| CC(C)(C)OC(=O)[C@H](CCC(=O)C=[N+]=[N-])NC(=O)[C@H](Cc1c[nH]c2ccccc12)NC(=O)CN1CCOCC1 [Compound 11c, tert-Butyl (S)-2-((S)-3-(1H-indol-3-yl)-2-(2-morpholinoacetamido)propanamido)-6-diazo-5-oxohexanoate] | 80 ± 2 |  | 106 | 95 ± 1 |  |
| CN(C)CC(=O)N[C@@H](Cc1cn(C)c2ccccc12)C(=O)N[C@@H](CCC(=O)C=[N+]=[N-])C(=O)OC(C)(C)C [Compound 12a, tert-Butyl (S)-6-diazo-2-((S)-2-(2-(dimethylamino)acetamido)-3-(1-methyl-1H-indol-3-yl)propanamido)-5-oxohexanoate] | 75 ± 1 |  | 80 | 104 ± 2 |  |
| C[C@H](NC(=O)CN(C)C)C(=O)N[C@@H](CCC(=O)C=[N+]=[N-])C(=O)OC(C)(C)C [Compound 13a, tert-Butyl (S)-6-diazo-2-((S)-2-(2-(dimethylamino)acetamido)propanamido)-5-oxohexanoate] | 95 ± 1 |  | 32 | 99 ± 2 |  |
| CC(C)(C)OC(=O)[C@H](CCC(=O)C=[N+]=[N-])NC(=O)CNC(=O)CN1CCOCC1 [Compound 14c, tert-Butyl (S)-6-diazo-2-(2-(2-morpholinoacetamido)acetamido)-5-oxohexanoate] | 100 ± 1 |  | 15 | 96 ± 1 |  |
| CC(C)C[C@H](NC(=O)CN(C)C)C(=O)N[C@@H](CCC(=O)C=[N+]=[N-])C(=O)OC(C)(C)C [Compound 16a, tert-Butyl (S)-6-diazo-2-((S)-2-(2-(dimethylamino)acetamido)-4-methylpentanamido)-5-oxohexanoate] | 87 ± 0 |  | 45 | 87 ± 1 |  |
| CC(=O)N[C@@H](Cc1cncn1C)C(=O)N[C@@H](CCC(=O)C=[N+]=[N-])C(=O)OC(C)(C)C [Compound 18a, tert-Butyl (S)-2-((S)-2-acetamido-3-(1-methyl-1H-imidazol-5-yl)propanamido)-6-diazo-5-oxohexanoate] | 105 ± 2 |  |  | 93 ± 1 |  |
| CN(C)CC(=O)N[C@@H](Cc1cncn1C)C(=O)N[C@@H](CCC(=O)C=[N+]=[N-])C(=O)OC(C)(C)C [Compound 18b, tert-Butyl (S)-6-diazo-2-((S)-2-(2-(dimethylamino)acetamido)-3-(1-methyl-1H-imidazol-5-yl)propanamido)-5-oxohexanoate] | 100 ± 3 |  |  | 98 ± 2 |  |
| CN(C)CC(=O)N[C@@H](Cc1cccc(F)c1)C(=O)N[C@@H](CCC(=O)C=[N+]=[N-])C(=O)OC(C)(C)C [Compound 21a, tert-Butyl (S)-6-diazo-2-((S)-2-(2-(dimethylamino)acetamido)-3-(3-fluorophenyl)propanamido)-5-oxohexanoate] | 75 ± 4 |  | 46.71 |  |  |
| CN(C)CC(=O)N[C@@H](Cc1ccc(F)cc1)C(=O)N[C@@H](CCC(=O)C=[N+]=[N-])C(=O)OC(C)(C)C [Compound 22a, tert-Butyl (S)-6-diazo-2-((S)-2-(2-(dimethylamino)acetamido)-3-(4-fluorophenyl)propanamido)-5-oxohexanoate] | 62 ± 1 |  | 52.07 |  |  |
| CN(C)CC(=O)NCCC(=O)N[C@@H](CCC(=O)C=[N+]=[N-])C(=O)OC(C)(C)C [Compound 25a, tert-Butyl (S)-6-diazo-2-(3-(2-(dimethylamino)acetamido)propanamido)-5-oxohexanoate] | 99 ± 1 |  | 16 | 92 ± 4 |  |
| COC(=O)[C@H](CCC(=O)C=[N+]=[N-])NC(=O)[C@H](Cc1c[nH]c2ccccc12)NC(=O)CN(C)C [Compound 28a, Methyl (S)-6-diazo-2-((S)-2-(2-(dimethylamino)acetamido)-3-(1H-indol-3-yl)propanamido)-5-oxohexanoate] | 0 ± 0 |  | 21 |  |  |
| [2H]C([2H])([2H])OC(=O)[C@H](CCC(=O)C=[N+]=[N-])NC(=O)[C@H](Cc1c[nH]c2ccccc12)NC(C)=O [Compound 28b, Methyl-d3 (S)-2-((S)-2-acetamido-3-(1H-indol-3-yl)propanamido)-6-diazo-5-oxohexanoate] | 2 ± 0 |  | 10 |  |  |
| CC(=O)N[C@@H](Cc1c[nH]c2ccccc12)C(=O)N[C@@H](CCC(=O)C=[N+]=[N-])C(=O)OC(CF)CF [Compound 28c, 1,3-Difluoropropan-2-yl (S)-2-((S)-2-acetamido-3-(1H-indol-3-yl)propanamido)-6-diazo-5-oxohexanoate] | 1 ± 0 |  | 11 |  |  |
| CNC(=O)[C@H](CCC(=O)C=[N+]=[N-])NC(=O)[C@H](Cc1c[nH]c2ccccc12)NC(C)=O [Compound 31b, (S)-2-((S)-2-Acetamido-3-(1H-indol-3-yl)propanamido)-6-diazo-N-methyl-5-oxohexanamide] | 103 ± 4 |  | 1 | 90 ± 2 |  |
| CN(C)CC(=O)N[C@@H](Cc1cn(C)c2ccccc12)C(=O)N[C@@H](CCC(=O)C=[N+]=[N-])C(N)=O [Compound 31f, (S)-6-Diazo-2-((S)-2-(2-(dimethylamino)acetamido)-3-(1-methyl-1H-indol-3-yl)propanamido)-5-oxohexanamide] | 49 ± 0 |  |  | 89 ± 2 |  |
